Assay type in all cases: in vivo
The subject of assay [1] is Salmonella. The assay can be described thus: Salmonella cfu/g of caeca at day 42 (Example 10). The note with it: in feed. As to the method:
(§1) A study was performed to evaluate growth promotion and reduction of Campylobacter carriage using FeTyr in Ross 308 male broilers with 7 treatment groups. Each treatment group comprised eight replicates of 10 birds per pen (80 birds/treatment group), with 2 control groups and […]. All the test groups and both of the control groups were exposed at day 20 of the trial to dirty litter, which tested positive for Campylobacter. This method was used to provide a more natural method to Campylobacter challenge the birds. Thus there were two positive controls where each treatment group was challenged with Campylobacter, and five treatment groups that were all challenged with Campylobacter. The total number of birds used in the 7 treatment groups was 560.
(§2) At day 20, litter, which was naturally Campylobacter-contaminated, was tested to confirm the presence of Campylobacter, and then added (approximately 2 kg/pen) to the litter in all pens. At day 42, caecal samples were taken and tested for Campylobacter, E. coli and Salmonella enumeration.

In assay [2] the test system is Campylobacter. In words: Campylobacter cfu/g of caeca at day 42 (Example 10). The conditions noted are these: in feed. As to the method: as §1, §2
In assay [3] the test system is E. coli. In words: E. coli cfu/g of caeca at day 42 (Example 10). On the procedure: as §1, §2
Assay [4] relates to Campylobacter. The assay can be described thus: Campylobacter carriage in chickens, cfu/g of droppings and caeca at day 42 (Example 1). As to the method: A study was performed to evaluate growth promotion and reduction of Campylobacter carriage using FeQ and FeTyr in Ross 308 male broilers with 7 treatment groups. Each treatment group comprised four replicates of 10 birds per pen (40 birds/treatment group and 4 pens of 10 birds/treatment group), with 2 control groups and 5 test groups. All the test groups and one of the control groups were exposed at day 20 of the trial to dirty litter, which tested positive for Campylobacter. This method was used to provide a more natural method to Campylobacter challenge the birds. Thus there was a positive control where one treatment group was challenged with Campylobacter and one negative control group where the birds were not challenged, and five treatment groups that were all challenged with Campylobacter. The total number of birds used in the 7 treatment groups was 280. Treatment group 1 was a negative control where birds just received the commercial feed, and were not challenged with dirty litter containing Campylobacter. Treatment group 2 was the positive control where the birds received the commercial feed, and were challenged with dirty litter containing Campylobacter at day 20. Treatment group 3 received 0.22 g/L of FeQ in their drinking water and 0.22 g/Kg FeQ in their feed during the entire trial, and was challenged with dirty litter containing Campylobacter at day 20. Treatment group 5 received 0.22 g/L of FeQ in their drinking water during the entire trial, and was challenged with dirty litter containing Campylobacter at day 20. Treatment group 6 received 0.22 g/kg FeQ in their feed during the entire trial, and was challenged with dirty litter containing Campylobacter at day 20. Treatment group 7 received 0.022 g/L FeQ in their drinking water during the entire trial, and was challenged with dirty litter containing Campylobacter at day 20. Treatment group 8 received 0.02 g/L FeTyr in their drinking water during the entire trial, and was challenged with dirty litter containing Campylobacter at day 20. The FeTyr was pre-dissolved in DMSO, and diluted to provide a solution of 0.02 g/L of FeTyr in water. (An additional treatment group 4 was terminated due to solubility issues.)
Prior to challenging the chickens with dirty litter containing Campylobacter at day 20, each pen was tested for Campylobacter using cloacal swabs. All pens tested negative for Campylobacter prior to the challenge. At day 20, litter, which was naturally Campylobacter-contaminated, was tested to confirm the presence of Campylobacter, and then added (approximately 2 kg/pen) to the litter in all pens except in pens for treatment group 1 (the negative control). At day 28, the pen litter was sampled to confirm the presence or absence of Campylobacter. At day 41 and 42, caecal samples were taken from 3 birds per pen (12 birds per treatment group) and tested for Campylobacter enumeration. At day 42, digesta, fecal samples, and caecal content was taken from all birds, and pooled per pen. Two birds per pen were also taken from treatment groups 1-3, euthanized, and blood samples taken. Samples were analyzed for blood chemistry, including analysis for alkaline phosphatase, aspartate amino transferase, alanine amino transferase, gamma-glutamyl transferase, lactate dehydrogenase, total protein, albumin, globulin, amylase and glucose.

For assay [5], the system named is Campylobacter jejuni. The assay can be described thus: Campylobacter carriage in chickens after oral challenge, caecal contents at day 35 (Example 9). The conditions noted are these: 340 μM in the drinking water; oral challenge at day 14. On the procedure:
A study was performed to evaluate reduction of Campylobacter carriage in chickens using ferric lactate in one treatment group, and FeQ (Q-PLEX) in a second treatment group. A third treatment group served as a positive control. The ferric lactate and FeQ were administered to the treatment groups at a concentration of 340 μM in the drinking water. Each treatment group comprised 12 birds per pen. All three treatment groups were orally challenged with 10^5 cfu of Campylobacter jejuni at day 14 of the trial. At day 35 all birds were euthanized, and quantitative bacteriology performed on caecal contents.

On to `O=C([O-])C1(O)CC(O)C(O)C(O)C1.O=C([O-])C1(O)CC(O)C(O)C(O)C1.O=C([O-])C1(O)CC(O)C(O)C(O)C1.[Fe+3]` (stereo not drawn) [FeQ, Ferric Quinate], for which the “Salmonella cfu/g of caeca at day 42 (FIG. 15)” value in assay [1] is “positive effect on reducing Campylobacter infection”. Also, the “Campylobacter cfu/g of caeca at day 42 (FIG. 14)” value in assay [2] is “positive effect on reducing Campylobacter infection”. Besides, in assay [3] (in feed), the “E. coli cfu/g of caeca at day 42 (FIG. 16)” value was “positive effect on reducing Campylobacter infection”. Also, the “levels of E. coli in poultry upon treatment” value in assay [3] (poultry data) is given as “lower levels of E. coli”. For the same molecule, the “Campylobacter cfu/g of bird droppings at day 42 (FIG. 3), low concentration” value in assay [4] (0.022 g/L FeQ in water, treatment group 7, considered likely experimental error) is reported as “less of an effect than the other treatment groups”. Besides, the “Campylobacter cfu/g of caeca samples at day 42 (FIG. 4), low concentration” value in assay [4] (treatment group 7: 0.022 g/L FeQ in water) is recorded as “highly beneficial effect”. In assay [4] (treatment groups 3 and 5-8), the “Campylobacter cfu/g of caeca samples at day 42 compared with positive control (FIG. 4)” value is reported as “positive effect on reducing Campylobacter infection”. In addition, the “Campylobacter cfu/g of bird droppings at day 42 compared with positive control (FIG. 3)” value in assay [4] (treatment groups 3 and 6-8) is recorded as “positive effect on reducing Campylobacter infection”. In addition, the “levels of Campylobacter in caeca at day 35 compared with positive control (FIG. 11)” value in assay [5] is reported as “lower levels of Campylobacter in their caeca”.
